Source: the supplement of paper PMC10307832

How the values were obtained:
Experiment in all cases: relative viability (nuclei count vs DMSO), 5 days (fraction); higher = more cells survive
[1] = compound: O=c1[nH]cc(F)c(=O)[nH]1 [5-Fluorouracil] + CC(C)C[C@H](NC(=O)[C@H](Cc1ccccc1)NC(=O)c1cnccn1)B(O)O [Bortezomib] (partner 0.002 µM)
Method in brief: (§1)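 The day after seeding in 1536-well plates, lung cancer cell lines were treated by pin tool with a single drug, or with a fixed anchor-drug dose together with five library-drug doses (not always all listed) in √10 steps. After 5 days, a combined fix-and-stain solution (final 0.05% Triton X-100, 1% formaldehyde, 1 ug/ml Hoechst) was added. Nuclei counted on 4× images gave relative viability as treated counts over vehicle counts, reported as the median of duplicate plates.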

[2] = compound: CN[C@@H]1C[C@H]2O[C@@](C)([C@@H]1OC)n1c3ccccc3c3c4c(c5c6ccccc6n2c5c31)C(=O)NC4 [Staurosporine] + C[C@@H](Oc1cc(-c2cnn(C3CCNCC3)c2)cnc1N)c1c(Cl)ccc(F)c1Cl [Crizotinib] (partner 1 µM)
Method in brief: as §1

[3] = compound: CC1=C(CC(=O)O)c2cc(F)ccc2/C1=C\c1ccc([S+](C)[O-])cc1 [Sulindac] + N=C(N)NC(=N)NCCc1ccccc1 [Phenformin] (partner 250 µM)
Method in brief: as §1

[4] = compound: CC1=C(CC(=O)O)c2cc(F)ccc2/C1=C\c1ccc([S+](C)[O-])cc1 [Sulindac] + CC(=O)c1c(C)c2cnc(Nc3ccc(N4CCNCC4)cn3)nc2n(C2CCCC2)c1=O [Palbociclib] (partner 0.5 µM)
Method in brief: as §1

| Cell Line | relative viability ([1]; first compound 0.02 µM) | relative viability ([1]; first compound 0.2 µM) | relative viability ([1]; first compound 0.6325 µM) | relative viability ([1]; first compound 2 µM) | relative viability ([2]; first compound 0.005 µM) | relative viability ([2]; first compound 0.01581 µM) | relative viability ([2]; first compound 0.05 µM) | relative viability ([2]; first compound 0.1581 µM) | relative viability ([2]; first compound 0.5 µM) | relative viability ([3]; first compound 0.08 µM) | relative viability ([3]; first compound 0.253 µM) | relative viability ([3]; first compound 2.53 µM) | relative viability ([3]; first compound 8 µM) | relative viability ([4]; first compound 0.08 µM) | relative viability ([4]; first compound 0.253 µM) | relative viability ([4]; first compound 0.8 µM) | relative viability ([4]; first compound 2.53 µM) | relative viability ([4]; first compound 8 µM) | relative viability ([3]; first compound 0.8 µM) |
| --- | --- | --- | --- | --- | --- | --- | --- | --- | --- | --- | --- | --- | --- | --- | --- | --- | --- | --- | --- |
| NCI-H2087 | 0.884 | 0.757 | 0.599 | 0.497 | 0.767 | 0.392 | 0.344 | 0.137 | 0.12 | 0.58 | 0.529 | 0.431 | 0.51 | 0.224 | 0.273 | 0.228 | 0.239 | 0.224 |  |
| NCI-H596 | 1.14 | 0.794 | 0.694 | 0.597 | 1.16 | 0.959 | 0.447 | 0.189 | 0.156 | 0.839 | 0.892 | 0.71 | 0.771 |  |  |  |  |  | 0.56 |
| Calu-6 | 0.984 | 0.947 | 0.801 | 0.42 | 0.809 | 0.337 | 0.163 | 0.0867 | 0.0627 |  |  |  |  |  |  |  |  |  |  |
| LCLC-103H | 0.99 | 1.18 | 0.931 | 0.632 | 1.1 | 0.741 | 0.564 | 0.318 | 0.258 | 0.361 | 0.318 | 0.315 | 0.323 | 0.465 | 0.496 | 0.478 | 0.453 | 0.424 | 0.286 |
| HCC-15 | 1.18 | 1.03 | 0.534 | 0.322 | 0.795 |  | 0.527 | 0.307 | 0.267 | 0.54 | 0.468 | 0.491 | 0.57 | 0.901 | 0.818 | 0.543 | 0.736 | 0.721 | 0.323 |
| H3255 | 0.804 | 0.867 | 0.684 | 0.544 | 0.591 | 0.495 | 0.25 | 0.174 | 0.0875 | 0.333 | 0.295 | 0.336 | 0.335 | 0.288 | 0.32 | 0.391 | 0.311 | 0.326 | 0.357 |
| NCI-H1915 | 0.717 | 1 | 0.915 | 0.765 | 0.903 |  | 0.362 | 0.294 | 0.268 | 0.445 | 0.389 | 0.378 | 0.382 | 0.566 | 0.538 | 0.574 | 0.517 | 0.506 |  |
| NCI-H1563 | 0.895 | 0.859 | 0.841 | 0.718 | 0.696 | 0.559 | 0.635 | 0.587 | 0.503 | 0.647 | 0.626 | 0.694 | 0.677 |  |  |  |  |  | 0.608 |
| NCI-H650 | 0.894 | 0.622 | 0.517 | 0.529 | 0.443 | 0.333 | 0.271 | 0.196 | 0.151 | 0.448 | 0.466 | 0.471 | 0.502 | 0.313 | 0.347 | 0.32 | 0.28 | 0.402 | 0.389 |
| NCI-H2126 | 0.948 | 0.583 | 0.337 | 0.318 | 0.994 | 0.8 | 0.635 | 0.486 | 0.407 | 0.513 | 0.541 | 0.46 | 0.593 | 0.344 | 0.333 | 0.395 | 0.372 | 0.361 | 0.539 |
| NCI-H838 | 0.732 | 0.794 | 0.637 | 0.281 | 0.259 | 0.179 | 0.175 | 0.168 | 0.127 | 0.519 | 0.652 | 0.518 | 0.6 | 0.262 | 0.234 | 0.195 | 0.226 | 0.223 | 0.364 |
| NCI-H2342 |  |  |  |  |  |  |  |  |  | 0.647 | 0.594 | 0.546 | 0.625 | 0.466 | 0.482 | 0.536 | 0.481 | 0.56 | 0.475 |
| NCI-H1299 | 1.07 | 1.05 | 1.04 | 0.959 | 0.516 | 0.385 | 0.55 | 0.163 | 0.142 |  |  |  |  |  |  |  |  |  |  |
| LK-2 |  |  |  |  | 0.18 | 0.16 | 0.129 | 0.0689 | 0.0939 | 0.412 | 0.421 |  | 0.529 | 0.879 | 0.624 | 0.496 | 0.369 | 0.88 |  |
| NCI-H358 |  |  |  |  | 0.386 | 0.225 | 0.106 | 0.116 | 0.0764 | 0.362 | 0.369 | 0.312 | 0.385 | 0.135 | 0.139 | 0.129 | 0.139 | 0.136 | 0.221 |
| SK-MES-1 |  |  |  |  | 0.718 | 0.582 | 0.262 | 0.184 | 0.11 | 0.798 | 0.77 | 0.662 | 0.73 | 0.313 | 0.364 | 0.353 | 0.373 | 0.315 | 0.591 |
| SW 900 |  |  |  |  |  |  |  |  |  |  | 0.723 | 0.563 | 0.606 | 0.479 | 0.584 |  |  | 0.496 |  |
| NCI-H1703 | 0.326 | 0.36 | 0.314 | 0.365 | 0.483 | 0.253 | 0.093 | 0.133 | 0.0695 |  |  |  |  |  |  |  |  |  |  |
| EBC-1 | 0.64 | 0.553 | 0.619 | 0.477 | 0.183 | 0.205 | 0.163 | 0.105 | 0.115 |  |  |  |  |  |  |  |  |  |  |
| NCI-H1395 |  |  |  |  |  |  |  |  |  | 0.427 | 0.448 | 0.44 | 0.526 | 0.545 | 0.563 | 0.708 | 0.627 | 0.728 | 0.478 |
| IA-LM | 0.766 | 0.327 | 0.193 | 0.141 | 0.253 | 0.073 | 0.319 | 0.148 | 0.0488 |  |  |  |  |  |  |  |  |  |  |
| NCI-H2170 |  |  |  |  | 1.43 | 0.754 | 0.92 | 0.195 | 0.311 | 0.471 | 0.407 | 0.384 | 0.432 | 0.482 | 0.402 | 0.413 | 0.427 | 0.38 | 0.411 |
| NCI-H1793 |  |  |  |  |  |  |  |  |  | 0.404 | 0.396 | 0.372 | 0.333 | 0.301 | 0.375 |  | 0.34 | 0.364 | 0.272 |
